Series [1] can be described thus: Stability in human plasma. The series is classed as in vitro ADME.
Series [2] in a line: Stability in monkey plasma. It is filed as in vitro ADME.
Series [3] can be described thus: Pharmacokinetics of DON in swine plasma and CSF. As to conditions: 60 min post-administration.
Series [4] concerns LPS-treated mice. Nature of the series: LPS-induced deficit in contextual fear memory reconsolidation. The series is classed as in vivo, mouse. As to conditions: 1.9 mg/kg, i.p. co-administered with LPS 0.3 mg/kg, i.p. on Day 2. The procedure:
Fear conditioning and testing were performed in sound-attenuating chambers equipped with a metal grid floor to deliver calibrated inescapable footshocks. Fear conditioning (Day 1) consisted of a 2 minute habituation period followed by three 20 second 80 dB 2 kHz tones co-terminating in 0.4 mA footshocks separated by 1 minute interstimulus intervals. One day later (Day 2), each mouse was randomized into one of four treatment groups (PBS/Vehicle, PBS/9, LPS/Vehicle, LPS/9) and co-administered either LPS (0.3 mg/kg, i.p.) or filtered PBS with either 9 (1.9 mg/kg, i.p.) or Vehicle. Four hours later, each mouse was exposed to a reactivation session in which they were placed back in the fear conditioning context for 15 minutes. One day later (Day 3), each mouse underwent a test for fear memory reconsolidation by being placed again in the fear conditioning context for 10 minutes. For each session, time spent freezing was determined using automated motion detection software (CleverSys) and converted to percentages.
Freezing percentages during the reconsolidation test were grouped by treatment into 2 minute bins. Between group differences were determined by repeated measure two-way ANOVA and post hoc Dunnett's test with significance defined as p<0.05.

Series [5] deals with glutamate in CSF. As to the kind of experiment: CSF glutamate levels in EcoHIV mice (LC/MS). The series is classed as in vivo, mouse. As to the method:
CSF samples were derivatized with dabsyl chloride for analysis. To prepare a dabsyl chloride stock, acetone was added to dabsyl chloride to 10 mM concentration, vortexed, water bath sonicated for 10 minutes followed by heating to 60° C. for 10 minutes, vortexing again, centrifugation for 5 minutes at 16,000×g and taking the supernatant. Ten microliter standards of glutamate were prepared in artificial CFS by serial dilution. To each standard and sample, one volume of 0.2 M sodium bicarbonate buffer (pH 9.0 containing 100 μM glutamate-d5 as internal standard) and 2 volumes dabsyl chloride stock was added. Samples were incubated at 60° C. 10 minutes to derivatize. […] Glutamate was quantifiable to 10 nM.
Male C57BL6 mice were sham or EcoHIV-inoculated (4e6 pg p24, i.p.) then randomized to receive vehicle or compound 25 (1.82 mg/kg, i.p. every other day) beginning 15 post-inoculation. On day 33 post-inoculation, all mice were deeply anesthetized with isoflurane 30 minutes post-last dose, and CSF was terminally sampled from the cistema magna prior to measurement of glutamate concentrations by LC/MS-MS. EcoHIV infection caused increases in CSFS glutamate that were normalized by compound 25 treatment. Excluding values >2SD from mean, n=4-5/group. Analysis by two-way ANOVA followed by post-hoc Fisher's LSD, *p<0.05, ***p<0.001. Data are presented as the mean+SEM.

Series [6] has as its system CSDS mice. As to the kind of experiment: Three-chambered social approach test after chronic social defeat stress (CSDS). It is filed as in vivo, mouse. As to the method:
(§1) Compound 25 was synthesized by our laboratory. For all pharmacokinetic and efficacy studies, compound 25 was administered per oral (p.o.) at a dose of 1.82 mg/kg (1 mg/kg DON equivalent) in 50 mM HEPES-buffered saline.
Male 7- to 8-week-old C57BL/6J (C57) mice (25-30 g; Jackson Laboratory, Bar Harbor, Me.) and 4- to 6-month-old CD-1 retired breeders (35-45 g; Charles River Laboratories, Wilmington, Mass.) were used for all experiments. Mice were housed on a reversed 12-h light/dark cycle, and maintained in a humidity- and temperature-controlled room with water and food available ad libitum. CD-1 mice were singly housed except during social defeats. C57 mice were group housed before starting CSDS and singly housed after CSDS. Behavioral experiments were conducted during the dark cycle. All studies were conducted with approved protocols from the Johns Hopkins University Institutional Animal Care and Use Committee and were in accordance with the NIH guidelines for the Care and Use of Laboratory Animals.
Mice were exposed to CSDS and subsequently administered compound 25 or vehicle every other day for 12 days (FIG. 14A). To examine the effect of compound 25 treatment on behavioral phenotypes induced by CSDS, we first tested the mice in the three-chambered social approach test, where the social approach of a mouse toward a stranger mouse trapped in a wire cage was measured.

Series [7] deals with CSDS mice. Nature of the series: Sucrose preference test after CSDS. The series is classed as in vivo, mouse. The procedure:
as §1
The sucrose preference test was performed according to a previously described protocol (Cao et al, 2013; Roybal et al, 2007). The mice were singly caged before the test. On day 1, their normal water bottles were replaced with two 50 ml tubes (bottle ‘A’ and bottle ‘B’) fitted with bottle stoppers containing two-balled sipper tubes. The position of bottles A and B were switched daily to avoid a side bias, and the fluid consumed from each bottle was measured daily. During days 1 and 2, bottles A and B were filled with normal drinking water (W/W). During days 3 and 4, both bottles were filled with a solution of 1.5% sucrose dissolved in drinking water (S/S). On days 5-8, bottle A contained 1.5% sucrose, and bottle B contained drinking water […]. Sucrose preference on each day for each mouse was calculated as 100%×(Vol A/(Vol A+Vol B)) and averaged across the days for a given condition (W/W, S/S, or S/W). The average of total fluid consumption was also calculated as (Vol A+Vol B).
To examine the effect of compound 25 treatment on anhedonia-like behavior, control and CSDS mice were subjected to an 8-day sucrose preference test.

For series [8], the system named is EcoHIV-infected mice. Nature of the series: Radial arm water maze, therapeutic DON treatment of EcoHIV-infected mice. The series is classed as in vivo, mouse. To be noted: DON 1 mg/kg every other day started 26 days after EcoHIV infection; tests from day 30. The procedure:
The experimental design was for DON prophylaxis except that mice were infected first and DON administration at 1 mg/kg every other day started on Day 26 after infection.

Series [9] has as its system STX1A. Nature of the series: Gene expression by QPCR in basal ganglia brain tissues of EcoHIV-infected mice. The series is classed as in vivo, mouse. To be noted: DON treatment reversal experiment; tissues collected 15 min after last DON treatment. The procedure: Relative extent of gene expression tested by QPCR in basal ganglia brain tissues obtained from mice tested in DON treatment reversal experiment shown in FIG. 2A, FIG. 2B, and FIG. 2C. The tissues were collected 15 min after the last DON treatment;

The test system of series [10] is NRGN. The description is as above. The series is classed as in vivo, mouse. As to conditions: DON treatment reversal experiment; tissues collected 15 min after last DON treatment.
Series [11] is described as follows: DON levels in plasma, CSF and basal ganglia of mice (LC-MS/MS). The series is classed as in vivo. To be noted: C57Bl, mouse, 15 minutes after dosing, DON 1 mg/kg. The procedure: DON was spiked into untreated mouse plasma to generate standards at concentrations from 10 nM to 100 μM at half-log intervals. Butanol with 3N HCl (250 μL) was added to standards and samples (50 μL) and centrifuged at 16,000×g for 5 minutes to precipitate proteins. […] After derivatization the samples were dried at 45° C. under a nitrogen stream. Samples were resuspended in 50 μL 70/30 water/acetonitrile, vortexed and centrifuged at 16,000×g. […] Standards within the quantifiable range were used to generate a standard curve. Samples below the limit of quantification (BLQ) were assigned a value of 0.
Brain analysis: Brain sections were weighed. DON was spiked into untreated mouse brain tissue to generate standards as described above. Butanol with 3N HCl (5 μL/mg) was added to standards and samples and homogenized by pestle followed by centrifugation at 16,000×g. An aliquot (200 μL) of the supernatant was transferred to a new tube and processed as described in the plasma analysis section. Twenty microliters was injected for analysis as described hereinabove.

The test system of series [12] is EAE mice. As to conditions: cited from earlier work.
Series [13] relates to EcoHIV-infected mice. Nature of the series: Radial arm water maze, DON prophylaxis in EcoHIV-infected mice.
Setting [14] is: DON 1 mg/kg, i.p., […], 30 days post-infection.

The structures appear in SMILES notation. Entries after “also recorded” stand apart in the source; their conditions may differ. Where two headings read alike, the source gives them in different places.

With `CC(C)OC(=O)[C@H](CCC(=O)C=[N+]=[N-])NC(=O)O[C@H](C)OC(=O)C(C)(C)C` (single isomer, unassigned) [Compound 14b], the “stability in human plasma” value in [1] is on record as “unexpected stability”. Besides, in [2], the “stability in monkey plasma” value was “unexpected stability”. In series [3], the “CSF-to-plasma ratio of DON relative to DON” value is given as “increased CSF-to-plasma ratios” and the “amount of DON delivered to the CSF relative to DON” value was “substantially higher amounts of DON to the CSF”.

On to `CC(C)C[C@H](N)C(=O)N[C@@H](CCC(=O)C=[N+]=[N-])C(=O)OC(C)C` [Compound 9], for which, in series [4], the “LPS-induced reduced freezing during the reconsolidation test (Day 3)” value is given as “attenuated; also recorded: indistinguishable from PBS/Veh mice”.

Take `CCOC(=O)[C@H](CCC(=O)C=[N+]=[N-])NC(=O)[C@@H](N)CC(C)C` [Compound 25]: the “EcoHIV-induced increases in CSF glutamate concentration” value in series [5] (1.82 mg/kg, i.p. every other day, CSF sampled day 33 post-inoculation, 30 minutes post-last dose) is on record as “significantly reversed EcoHIV-induced increases in CSF glutamate concentration”. The “social behaviors (time in chamber, time sniffing) in mice subjected to CSDS” value in series [6] (1.82 mg/kg p.o. (1 mg/kg DON equivalent) every other day for 12 days after CSDS) is given as “normalized observed social behaviors”. In addition, the “sociability in control mice” value in series [6] (1.82 mg/kg p.o. every other day for 12 days, control mice) was “no effect on sociability in control mice”. In addition, in [7] (1.82 mg/kg p.o. (1 mg/kg DON equivalent), CSDS mice), the “sucrose consumption (sucrose preference) in the CSDS group, days 5-8” value is “markedly restored sucrose consumption”. The “sucrose consumption (sucrose preference) in controls, days 5-8” value in series [7] (1.82 mg/kg p.o., control mice) was “no change was observed in controls”.

For the compound `CC(C)OC(=O)[C@H](CCC(=O)C=[N+]=[N-])NC(=O)OC(OC(=O)C(C)(C)C)c1ccccc1` (stereo partly drawn) [Compound 47], in [3], the “CSF-to-plasma ratio of DON relative to DON” value is on record as “increased CSF-to-plasma ratios” and the “amount of DON delivered to the CSF relative to DON” value is reported as “substantially higher amounts of DON to the CSF”.

`[N-]=[N+]=CC(=O)CC[C@H](N)C(=O)O` [DON, 6-diazo-5-oxo-L-norleucine]: the “cognitive disease (radial arm water maze)” value in [8] was “completely abrogates (reverses) cognitive disease”. The “STX1A gene expression in basal ganglia” value in [9] was “reversed HIV-mediated down-modulation”. Also, the “NRGN gene expression in basal ganglia” value in series [10] is listed as “reversed HIV-mediated down-modulation”. Further, the concentration at 15 min fell in the range of 300 to 500 nM in series [11] (CSF, read-out: DON concentration in CSF); 300 to 500 nM in series [11] (brain (basal ganglia), read-out: DON concentration in brain tissue (basal ganglia)); 2500 to 3000 nM in series [11] (plasma, read-out: DON concentration in plasma). Also, in series [5] (DON-treated mice, no significant differences by one-way ANOVA), the “glutamate in CSF of EcoHIV mice” value is recorded as “tended to decrease the glutamate in the EcoHIV mice”. Further, the “EAE (disease score), DON from time of immunization” value in [12] (DON i.p. q.a.d. 1.6 mg/kg from the time of immunization (Shijie, et al., 2009)) is “attenuates EAE”. Also, the “EAE (disease score), lower doses of DON” value in series [12] (DON i.p. q.a.d., doses lower than 1.6 mg/kg (Shijie, et al., 2009)) is “ineffective”. Further, the “HIV-induced cognitive impairment (radial arm water test, learning and memory)” value in [13] (DON 1 mg/kg on alternate days from 24 h before EcoHIV infection, tested 30 days after infection) is listed as “prevents development of HIV-induced cognitive impairment”. Further, the “cognitive performance as measured by errors (RAWM, hidden platform)” value in series [13] (setting [14]) is “fully normalized cognitive performance”. Moreover, the “cognitive performance as measured by latency to escape (RAWM, hidden platform)” value in series [13] (setting [14]) was “fully normalized cognitive performance”.
